# Reference: ChEMBL document CHEMBL2074562, “Substrate specificity of the rat liver Na(+)-bile salt cotransporter in Xenopus laevis oocytes and in CHO cells” (Am J Physiol, 1998)
# Columns and labels:
# Type in all cases: functional, cell-based
# Details in all cases: hamster
# [1] = target: T1, Hepatic sodium/bile acid cotransporter (Rattus norvegicus, UniProt P26435); test: TP_TRANSPORTER: inhibition of Taurocholate uptake (Taurocholate: 2.5 uM, Estradiol-3-sulfate: 68 uM) in Ntcp-expressing CHO cells
# T1 sequence (P26435 whole entry): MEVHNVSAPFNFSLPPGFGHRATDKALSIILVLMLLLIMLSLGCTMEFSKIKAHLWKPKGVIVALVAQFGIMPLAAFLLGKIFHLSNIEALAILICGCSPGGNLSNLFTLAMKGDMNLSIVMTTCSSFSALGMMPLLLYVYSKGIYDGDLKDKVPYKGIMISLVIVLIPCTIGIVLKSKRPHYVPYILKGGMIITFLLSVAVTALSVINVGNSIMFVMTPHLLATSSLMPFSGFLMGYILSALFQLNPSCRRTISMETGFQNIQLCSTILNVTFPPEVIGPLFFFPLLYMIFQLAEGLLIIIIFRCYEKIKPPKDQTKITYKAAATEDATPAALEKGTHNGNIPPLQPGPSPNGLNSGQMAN
# [2] = target: T1, Hepatic sodium/bile acid cotransporter; test: TP_TRANSPORTER: inhibition of Taurocholate uptake (Taurocholate: 2.5 uM, E1S: 200 uM) in Ntcp-expressing CHO cells
# [3] = target: T1, Hepatic sodium/bile acid cotransporter; test: TP_TRANSPORTER: inhibition of Taurocholate uptake (Taurocholate: 2.5 uM, Progesterone: 200 uM) in Ntcp-expressing CHO cells
# [4] = target: T1, Hepatic sodium/bile acid cotransporter; test: TP_TRANSPORTER: inhibition of Taurocholate uptake (Taurocholate: 2.5 uM, Testosterone: 200 uM) in Ntcp-expressing CHO cells
structure (smiles),measurement,setting,value
C[C@]12CC[C@@H]3c4ccc(OS(=O)(=O)O)cc4CC[C@H]3[C@@H]1CC[C@@H]2O,Activity,[1],inhibitor [(at a rough estmate) 5 % of control]
C[C@]12CC[C@@H]3c4ccc(OS(=O)(=O)O)cc4CC[C@H]3[C@@H]1CCC2=O [ESTRONE SULFURIC ACID],Activity,[2],inhibitor [(at a rough estmate) 30 % of control]
CC(=O)[C@H]1CC[C@H]2[C@@H]3CCC4=CC(=O)CC[C@]4(C)[C@H]3CC[C@]12C [PROGESTERONE],Activity,[3],inhibitor [(at a rough estmate) 70 % of control]
C[C@]12CC[C@H]3[C@@H](CCC4=CC(=O)CC[C@@]43C)[C@@H]1CC[C@@H]2O [TESTOSTERONE],Activity,[4],inhibitor [(at a rough estmate) 50 % of control]
